Results on 7 molecules are retold here after publication PMC8291497 (ACS Chemical Biology, 2021).

Where no end group is shown, it is not given here. The star is where a group is joined. Dansyl = CN(C)c1cccc2c(S(=O)(=O)*)cccc12; TAMRA = carboxytetramethylrhodamine

Test [1] deals with T1, Mint2 PARM 364-570 (Y524W), pWT PARM (PTB domain and ARM linker) (Homo sapiens, UniProt Q99767, Y524W).
T1 construct: made in house; host or cells: Escherichia coli BL21(DE3)pLysS
T1 sequence (Q99767 364-570 Y524W): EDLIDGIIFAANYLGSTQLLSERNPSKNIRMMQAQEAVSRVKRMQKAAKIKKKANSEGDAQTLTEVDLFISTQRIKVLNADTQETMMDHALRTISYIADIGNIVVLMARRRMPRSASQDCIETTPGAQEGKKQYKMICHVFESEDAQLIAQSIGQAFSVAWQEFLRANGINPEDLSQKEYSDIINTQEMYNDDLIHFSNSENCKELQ
Put plainly: Stopped flow binding kinetics, APP peptides to PARM (pseudo-wild type). The method, then: (§1) Kinetic binding rate constants were obtained using an upgraded SX17 stopped flow spectrometer (Applied Photophysics), and all experiments were conducted at 25 °C in 500 mM NaCl and 25 mM HEPES (pH 7.4). The relatively high NaCl concentration was used to improve the solubility of the proteins. The change in tryptophan fluorescence was measured using a band-pass filter (excitation at 280 nm and emission at 330 ± 30 nm) when mixing varying concentrations (2–50 μM) of the dansyl peptides with 1 μM protein or 0.5 μM semisynthetic proteins. […] For PTB variants, we used the kobs value from the fast kinetic phase for the analysis. […] We report the errors in kon and koff from the curve fitting. […] For these koff determinations, we report the standard error of the mean of three replicates. Φ values were defined as ΔΔGTS/ΔΔGeq, where ΔΔGTS = RT ln(kon^WT/kon^mut.) and ΔΔGeq = RT ln(Kd^mut./Keq^WT). Calculated coupling free energies were defined as ΔΔΔGEq = RT ln(Kd^mut.:WTKd^WT:mut./Kd^WT:WTKd^mut.:mut.) or ΔΔΔGTS = RT ln(kon^WT:WTkon^mut.:mut./kon^mut.:WTkon^WT:mut.) as previously described.[27] Propagated errors are reported.

Test [2] has as its target T2, Mint2 PTB 364-538 (without the ARM linker) (Homo sapiens, UniProt Q99767, Y524W).
T2 construct: made in house; host or cells: Escherichia coli BL21(DE3)pLysS
T2 sequence (Q99767 364-538 Y524W): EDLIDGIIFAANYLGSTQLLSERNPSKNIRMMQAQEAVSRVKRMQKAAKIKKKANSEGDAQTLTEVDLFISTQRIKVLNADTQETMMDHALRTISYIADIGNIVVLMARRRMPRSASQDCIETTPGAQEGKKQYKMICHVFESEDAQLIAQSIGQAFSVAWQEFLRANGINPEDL
Put plainly: Stopped flow binding kinetics, APP peptides to PTB. The method, then: as §1

In another test the target is Mint2 PARMWT 364-570 (Homo sapiens, UniProt Q99767). Put plainly: biochemical.
Test [3] addresses Mint2 PARM 364-570 (Y524W) (Homo sapiens, UniProt Q99767, Y524W). The test is described as follows: biochemical.
Test [4] addresses T3, Mint2 PARM 364-570 (Y524W, Y543A) (Homo sapiens, UniProt Q99767, Y524W/Y543A).
T3 sequence (Q99767 364-570 Y524W/Y543A): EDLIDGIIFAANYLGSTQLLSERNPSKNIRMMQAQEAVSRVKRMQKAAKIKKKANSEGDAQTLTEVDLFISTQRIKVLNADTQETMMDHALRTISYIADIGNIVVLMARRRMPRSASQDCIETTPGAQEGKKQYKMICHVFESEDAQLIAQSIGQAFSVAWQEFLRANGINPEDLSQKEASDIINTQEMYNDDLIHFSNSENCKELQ
Put plainly: biochemical.

Test [5] addresses T4, Mint2 PARM 364-570 (Y524W, Y543E) (Homo sapiens, UniProt Q99767, Y524W/Y543E).
T4 sequence (Q99767 364-570 Y524W/Y543E): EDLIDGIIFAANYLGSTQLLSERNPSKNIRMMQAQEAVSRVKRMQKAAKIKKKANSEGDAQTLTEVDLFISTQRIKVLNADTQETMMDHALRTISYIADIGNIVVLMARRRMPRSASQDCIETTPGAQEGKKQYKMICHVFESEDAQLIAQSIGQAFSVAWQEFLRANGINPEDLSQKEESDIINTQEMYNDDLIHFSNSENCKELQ
Put plainly: biochemical.

The next test deals with Mint2 PTB 364-538 (Homo sapiens, UniProt Q99767, Y524W). The test is described as follows: biochemical.
For test [6], the target named is T3, Mint2 PARM 364-570 (Y524W, Y543A). The test is described as follows: Stopped flow binding kinetics, APP peptides to PARM^Y543A. More on the design: made in house; host or cells: Escherichia coli BL21(DE3)pLysS. The protocol: as §1
The target of test [7] is T4, Mint2 PARM 364-570 (Y524W, Y543E). Put plainly: Stopped flow binding kinetics, APP peptides to PARM^Y543E. More on the design: made in house; host or cells: Escherichia coli BL21(DE3)pLysS. The protocol: as §1
Test [8] addresses T5, pseudo-wild type (pWT) PARM domain of Mint2 (residues 364-570, Y524W) (human, UniProt Q99767 364-570, Y524W). The test is described as follows: fluorescence polarisation. Conditions: both partners purified.
Test [9] deals with T6, PARM^WT (Mint2 residues 364-570) (human, UniProt Q99767 364-570). The test is described as follows: fluorescence polarisation. Conditions: both partners purified. (In general: Polarisation of emitted light reports the rotation of a fluorescent probe.)
In test [10] the target is T5, pseudo-wild type (pWT) PARM domain of …. Put plainly: stopped-flow fluorescence kinetics. Conditions: both partners purified.
Test [11] addresses T6, PARM^WT (Mint2 residues 364-570). The test is described as follows: stopped-flow fluorescence kinetics. The note with it: both partners purified.
The target in the next test is PARM^Y543A (human, UniProt Q99767 364-570, Y524W | Y543A). Put plainly: stopped-flow fluorescence kinetics. The note with it: both partners purified.
Another test deals with PARM^Y543E (human, UniProt Q99767 364-570, Y524W | Y543E). The test is described as follows: stopped-flow fluorescence kinetics. The note with it: both partners purified.
In test [12] the target is PTB without the ARM linker (Mint2 residues 364-538) (human, UniProt Q99767 364-538, Y524W). Put plainly: stopped-flow fluorescence kinetics. The note with it: both partners purified.
The target of test [13] is PARM^WT (human Mint2 PTB domain with ARM linker, residues 364-570, no Y524W) (human, UniProt Q99767 364-570). Put plainly: fluorescence polarisation. Conditions: both partners purified.
The target in test [14] is PARM, pseudo-wild type (human Mint2 364-570, Y524W) (human, UniProt Q99767 364-570, Y524W). Put plainly: fluorescence polarisation. Conditions: both partners purified.
The target of test [15] is PARM^Y543A (human Mint2 364-570, Y524W, Y543A) (human, UniProt Q99767 364-570, Y524W | Y543A). The test is described as follows: fluorescence polarisation. Conditions: both partners purified.
The target of test [16] is PARM^Y543E (human Mint2 364-570, Y524W, Y543E) (human, UniProt Q99767 364-570, Y524W | Y543E). The test is described as follows: fluorescence polarisation. Conditions: both partners purified.
For test [17], the target named is PTB (human Mint2 PTB domain without the ARM linker, residues 364-538, Y524W) (human, UniProt Q99767 364-538, Y524W). The test is described as follows: fluorescence polarisation. Conditions: both partners purified.

The term kon denotes the rate constant with which the complex forms. High values mean fast association, low ones slow association. As a reminder, the koff is the first-order rate constant of dissociation. The low end stands for slow dissociation, the high end for fast dissociation. By Ki is commonly meant the equilibrium dissociation constant of an inhibitor or competing ligand from its target. `C[C@@H](O)[C@H](NC(=O)[C@@H]1CCCN1C(=O)[C@H](CC(N)=O)NC(=O)[C@H](CCC(=O)O)NC(=O)[C@H](Cc1ccc(O)cc1)NC(=O)CNC(=O)[C@H](CC(N)=O)NC(=O)CNC(=O)[C@H](CC(N)=O)NC(=O)[C@H](CC(N)=O)NS(=O)(=O)c1cccc2c(N(C)C)cccc12)C(=O)N[C@@H](Cc1ccc(O)cc1)C(=O)N[C@@H](CCCCN)C(=O)N[C@@H](Cc1cccc2ccccc12)C(=O)N[C@@H](Cc1ccccc1)C(=O)N[C@@H](CCC(=O)O)C(=O)O` [Peptide F764Nal1]: the Kd in test [1] was 1100 nM; in test [2], 70 nM; in [6], 490 nM; in test [7] it was 430 nM. Also, the kon was 1.2e+06 M⁻¹ s⁻¹ in test [1] (pH 7.4), 3.1e+07 ± 1e+06 M⁻¹ s⁻¹ in test [2] (pH 7.4), 2.5e+06 M⁻¹ s⁻¹ in test [6] (pH 7.4) and 2.9e+06 M⁻¹ s⁻¹ in test [7] (pH 7.4). Further, the koff was 1.3 s⁻¹ in test [1] (stopped flow, same buffer, 25 °C, from fit of kobs vs peptide concentration, or displacement with 50–150 µM APP^WT when not well-defined); 2.3 s⁻¹ in test [2]; 1.3 s⁻¹ in [6]; 1.2 s⁻¹ in [7]. For the same molecule, the Ki on Mint2 PARMWT 364-570 is 1300 nM; in test [3], 500 nM; in [4], 500 nM; in [5], 470 ± 30 nM; on Mint2 PTB 364-538, 290 nM.

In the case of `C[C@@H](O)[C@H](NC(=O)[C@@H]1CCCN1C(=O)[C@H](CC(N)=O)NC(=O)[C@H](CCC(=O)O)NC(=O)[C@H](Cc1ccc(O)cc1)NC(=O)CNC(=O)[C@H](CC(N)=O)NC(=O)CNC(=O)[C@H](CC(N)=O)NC(=O)[C@H](CC(N)=O)NS(=O)(=O)c1cccc2c(N(C)C)cccc12)C(=O)N[C@@H](Cc1ccc(O)cc1)C(=O)N[C@@H](CCCCN)C(=O)N[C@@H](Cc1ccccc1)C(=O)N[C@@H](Cc1cccc2ccccc12)C(=O)N[C@@H](CCC(=O)O)C(=O)O` [Peptide F765Nal1], the Kd was 1500 nM in [1], 120 nM in test [2] and 500 nM in [6]. The Ki on Mint2 PARMWT 364-570 is 2600 nM; in test [4] it was 1000 nM; in test [5], 1100 nM; at Mint2 PTB 364-538, 560 nM.

Consider `C[C@H](NC(=O)[C@H](Cc1ccc(O)cc1)NC(=O)[C@@H](NC(=O)[C@@H]1CCCN1C(=O)[C@H](CC(N)=O)NC(=O)[C@H](CCC(=O)O)NC(=O)[C@H](Cc1ccc(O)cc1)NC(=O)CNC(=O)[C@H](CC(N)=O)NC(=O)CNC(=O)[C@H](CC(N)=O)NC(=O)[C@H](CC(N)=O)NS(=O)(=O)c1cccc2c(N(C)C)cccc12)[C@@H](C)O)C(=O)N[C@@H](Cc1ccccc1)C(=O)N[C@@H](Cc1ccccc1)C(=O)N[C@@H](CCC(=O)O)C(=O)O` [Peptide K763A], for which, at Mint2 PTB 364-538, the Ki was determined as 800 nM.

`C[C@H](NC(=O)[C@H](CC(N)=O)NC(=O)[C@H](CCC(=O)O)NC(=O)[C@H](Cc1ccc(O)cc1)NC(=O)CNC(=O)[C@H](CC(N)=O)NC(=O)CNC(=O)[C@H](CC(N)=O)NC(=O)[C@H](CC(N)=O)NS(=O)(=O)c1cccc2c(N(C)C)cccc12)C(=O)N[C@H](C(=O)N[C@@H](Cc1ccc(O)cc1)C(=O)N[C@@H](CCCCN)C(=O)N[C@@H](Cc1ccccc1)C(=O)N[C@@H](Cc1ccccc1)C(=O)N[C@@H](CCC(=O)O)C(=O)O)[C@@H](C)O` [Peptide P760A]: in test [3], affinity was put at a Ki of 40000 ± 800 nM.

B1: (TAMRA)-NNG-NGYENPTYKFFE (peptide)
peptide: {TAMRA}-NNGNGYENPTYKFFE
As for B1, the binding result in [8] and in test [9] was “binds” in each case.

B2: dansyl-APP^WT (peptide)
peptide: Dansyl-NGYENPTYKFFE
B2: the koff in test [10] was 2.3 ± 0.08 s⁻¹; in test [11], 1.2 ± 0.05 s⁻¹; with PARM^Y543A, around 2 s⁻¹; with PARM^Y543E it was around 2 s⁻¹; in [12], around 2 s⁻¹. Also, the kon in [10] came out at 390000 ± 4000 M⁻¹ s⁻¹; in test [11] it was 380000 ± 3000 M⁻¹ s⁻¹; in [12], 1.1e+07 M⁻¹ s⁻¹. The “fold increase in kon against PARM” value with PARM^Y543A and with PARM^Y543E was 2.5 fold each time. The “ratio of Kd values for PARM and PTB” value in test [12] amounted to 0.057.

B3: APP^WT 12-mer (NGYENPTYKFFE), unlabelled (peptide)
peptide: NGYENPTYKFFE
Turning to B3, the Ki in test [13] was 3200 nM; in [14], 3500 nM; in test [15], 1100 nM; in test [16], 1100 nM; in test [17], 740 nM.
